In one data set the test system is insulin secretion. To be noted: at comparable dosages; cited from earlier work.
The conditions of data set [1]: literature clinical trials; cited from earlier work.
In data set [2] the test system is plasma insulin and glucose levels. The experiment in a line: Standardised 500 kCal meal test before and after six months of Diazoxide: plasma glucose and insulin. In kind it is in vivo, human. Details: Whole Body Insulin Sensitivity: unit not given here.
Data set [3] is described as follows: Plasma Diazoxide level by HPLC/UV. In kind it is in vivo. Conditions: male, human, at six months, mean daily dose 600±54 mg (5.7±0.5 mg/kg), oral, three times a day, read-out: plasma DZX level. The source says: Diazoxide was taken at t−30.
For data set [4] the following is noted: for Weight: 14 obese men after 6 months oral Diazoxide (mean 600±54 mg/day), mean ± SE, baseline 115.1 ± 3.4; for Waist circumference: baseline 116.9 ± 1.4.
Method: All subjects received were explained the physiological principle of this study. They also received dietary advice to reduce caloric intake to the calculated basal requirements for ideal body weight (based on the Harrison-Bennedict equation) and the instruction to increase walking exercise to at least 30 minutes a day. All subjects were allowed to do more physical exercise; the amount of daily physical exercise was not recorded. All subjects were instructed how to perform home glucose measurements (HGM). Blood samples were taken in the fasting state, (a) 2 hours after breakfast, just before lunch, (b) 2 hours after lunch, just before dinner, (c) 2 hours after dinner, at bedtime, and (d) at 3 am.
Baseline measurements included body weight, body height, abdominal circumference, body composition by total body dual energy X-ray absorptiometry (DEXA), supine and upright blood pressure, HGM for two days and the assessment of serum glucose levels and serum insulin levels in response to a standarised test meal. […] Venous blood samples were taen through a venous line inserted into the forearm at −30, 0, 30, 45, 60, 90, 120, 180, 240 and 300 minutes.
After completion of all baseline measurements, the subjects started Diazoxide 50 mg (three times a day) which was taken before each meal. Subsequently, the outpatient clinic was visited every month where the following data were recorded: body weight, abdominal circumference, supine and upright blood pressure, the results of a two-day, 8-point HGM performed in the week preceding the visit and adverse effects. Every visit, the daily Diazoxide dose was increased by 3×50 mg until a maximum of 300 mg (three times a day) was reached or until adverse side effects occurred. The Diazoxide dose was not increased if clinically relevant edema persisted for ore than a month, if upright systolic blood pressure was <110 mm Hg, if upright diastolic blood pressure was <70 mm Hg, or if fasting home glucose level was >7 nmol/l, or non-fasting home glucose level was >11 nmol/l.
After six months of treatment, all measurements were repeated including the meal test. Diazoxide was taken at t−30. Blood samples taken during the meal test at t120 were also analysed for Diazoxide levels. […] The results of total body DEXA were expressed as kg lean body mass, fat mass and bone mass. Normal values for serum glucose levels and serum insuli levels during the test meal were obtained by performing this test in ten healthy, age-matched, non-obese men (BMI about 20 to about 25 kg/m^2).
All data are shown as mean values±standard error (SE). The paired t-test was used to analyse the response to Diazoxide treatment, employing the Bonferoni correction for multiple comparisons. A p-value of less than 0.05 was considered to be statistically significant.
For data set [5] the following is noted: maximal 200 mg/day divided in three dosages, eight weeks, 24 hyperinsulinemic patients; placebo 5.0 kg; cited from earlier work.
Another data set concerns plasma insulin levels. To be noted: one week, cited from earlier work.
The conditions of data set [6]: 8-week weight-loss diet, hyperinsulinaemic obese subjects; cited from earlier work.
For data set [7] the following is noted: cited from earlier work.
The test system of data set [8] is blood glucose and insulin levels. Conditions: about 0.4 to about 0.8 mg/kg body weight before each meal; subjects with postprandial hyperglycemia and reactive hypoglycemia; cited from earlier work.
Setting [9] is: DEXA, 6 months vs baseline, P<0.001.
The mark [10] stands for this setting: oral 300 mg per day divided in three dosages.

Where two headings read alike, the source gives them in different places.

Here are results for five molecules from patent US20100234362A1, “USE OF DIAZOXIDE FOR SUPPRESSING THE PLASMA INSULIN LEVEL IN A MAMMAL” (priority 2007, published 2010).
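For change of LDL cholesterol in this document: obese men given oral Diazoxide before meals with dose raised monthly up to 300 mg three times daily, plus diet and walking advice, measured at baseline and after six months.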
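For change of systolic blood pressure in this document: obese men given oral Diazoxide before meals with dose raised monthly up to 300 mg three times daily, plus diet and walking advice, measured at baseline and after six months.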
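For decrease of diastolic blood pressure in this document: obese men given oral Diazoxide before meals with dose raised monthly up to 300 mg three times daily, plus diet and walking advice, measured at baseline and after six months.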
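For increase of adiponectin levels in this document: obese men given oral Diazoxide before meals with dose raised monthly up to 300 mg three times daily, plus diet and walking advice, measured at baseline and after six months.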

As for `CNC(=NS(=O)(=O)c1ccc(Cl)cc1)N1C[C@H](c2ccccc2)C(c2ccc(Cl)cc2)=N1` [Compound A, (4S)-3-(4-chlorophenyl)-N′-[(4-chlorophenyl)sulfonyl]-N-methyl-4-phenyl-4,5-dihydro-1-H-pyrazole-1-carboximidamide], in the data set with insulin secretion, the “inhibiting insulin secretion compared with Diazoxide” value is “more effective than Diazoxide”.

Turning to `CC(C)CC(N(C)C)C1(c2ccc(Cl)cc2)CCC1` (stereo not shown) [Sibutramine], the “(placebo-subtracted) net weight loss” value in data set [1] was “about 5 kg”.

Turning to `Cc1c(C(=O)NN2CCCCC2)nn(-c2ccc(Cl)cc2Cl)c1-c1ccc(Cl)cc1` [Rimonabant], the “(placebo-subtracted) net weight loss” value in data set [1] is recorded as “about 6 kg”.

Regarding `CCCCCCCCCCC[C@@H](C[C@@H]1OC(=O)[C@H]1CCCCCC)OC(=O)[C@H](CC(C)C)NC=O` [Orlistat], the “(placebo-subtracted) net weight loss” value in [1] is reported as about 3 kg.

Take `CC1=NS(=O)(=O)c2cc(Cl)ccc2N1` [Diazoxide, 7-chloro-3-methyl-4H-1,2,4-benzothiadiazine 1,1-dioxide]: in data set [2] (6 months vs baseline, P<0.001), the “reduction of AUCIns” value worked out at 63%, the “reduction of fasting insulin levels” value is 65% and the “reduction of post-meal insulin peak levels” value is reported as 62%. The “increase of fasting glucose” value in [2] (6 months vs baseline, P<0.01) was 0.8 ± 0.3 mmol/L. Also, in data set [2] (6 months vs baseline, P<0.02), the “rise of AUCGluc” value is recorded as 29%. Besides, in data set [2] (6 months vs baseline, P=0.06), the “increase of peak glucose” value worked out at 1.4 ± 0.7 mmol/L. The “increase of whole body insulin sensitivity” value in data set [2] (6 months vs baseline, printed 95% CI: 60-145%, P<0.001) amounted to 209%. Moreover, in [2] (after 6 months Diazoxide, baseline 3.0 ± 0.3, P<0.001), the “Whole Body Insulin Sensitivity” value is listed as 8.8 ± 1.2. The molecule further came in with a Fasting glucose in [2] (after 6 months Diazoxide, baseline 5.5 ± 0.2, P<0.01) of 6.3 ± 0.3 mmol/L. The “Fasting Insulin” value in data set [2] (after 6 months Diazoxide, baseline 18.0 ± 2.3, P<0.001) stood at 5.6 ± 0.7 mU/L. In data set [2] (meal test after 6 months Diazoxide, baseline 8.4 ± 0.3, NS), this molecule registered a Peak glucose of 9.8 ± 0.7 mmol/L. This molecule came in with an AUC insulin in [2] (meal test after 6 months Diazoxide, baseline 16.6 ± 2.1, P<0.001) of 5.4 ± 0.4 mU · 10^−3/L · min. In addition, in data set [2] (meal test after 6 months Diazoxide, baseline 124 ± 17, P<0.001), the “Peak Insulin” value was 35 ± 4 mU/L. Also, the concentration at 150 min in data set [3] was determined as 50000 ± 5800 ng/mL. For the same molecule, in data set [4] (6 months vs baseline), the “change of LDL cholesterol” value is reported as “did not change significantly” and the “change of systolic blood pressure” value was “did not change”. Also, the “decrease of diastolic blood pressure” value in data set [4] (6 months vs baseline, 95% CI: 6.5-15.4 mm Hg, P<0.001) was 10.9±2.3 mm Hg. Moreover, the “increase of adiponectin levels” value in data set [4] (6 months vs baseline, P<0.001) worked out at 100±17%. In addition, the “increase of HbAlc” value in data set [4] (6 months vs baseline, P<0.02) worked out at 0.5 % points. The “main dose limiting events” value in data set [4] (14 men, six months, 300 to 900 mg/day, other adverse effects not observed) is “Hyperglycaemia (n=4) and edema (n=8)”. The Weight in [4] (P<0.001) was 105.7 ± 3.5 kg. In data set [4] (P<0.001, listed as DZX), this molecule returned a Weight of 105.7 ± 3.8 kg. For the same molecule, the “Bone Mass” value in data set [4] (DEXA after 6 months Diazoxide, baseline 3.35 ± 0.14, NS) is given as 3.47 ± 0.11 kg. For the same molecule, the “Fat Mass” value in data set [4] (DEXA after 6 months Diazoxide, baseline 40.1 ± 1.8, P<0.001) turned out to be 30.7 ± 2.1 kg. In addition, in data set [4] (DEXA after 6 months Diazoxide, baseline 70.2 ± 2.0, NS), the “Soft Tissue LBM” value was 70.6 ± 2.4 kg. Also, in data set [4] (DEXA, 6 months vs baseline), the “change in soft tissue lean body mass or bone mass” value was “without a concomitant change”. In addition, in [4] (setting [9]), the “change of total body fat mass” value was −23.3% and the “decrease of total body fat mass” value turned out to be 9.5 ± 1.9 kg. Besides, the “plasma insulin level at which substantial loss of body fat (decrease of 10 kg or more) occurred” value in [4] (FIG. 5, fasting insulin at 6 months, mean DZX dose in this subgroup 630±56 mg, about 30 pmol/L) is listed as “below 4.5 mU/L”. Besides, in data set [4] (after 6 months Diazoxide, baseline 0.37 ± 0.01, P<0.02), the Urate came out at 0.32 ± 0.02 mmol/L. Besides, the HDL-Cholesterol in [4] (after 6 months Diazoxide, baseline 1.12 ± 0.07, P<0.05) worked out at 1.25 ± 0.09 mmol/L. The Triglycerides in [4] (after 6 months Diazoxide, baseline 2.17 ± 0.26, P<0.001) was 1.08 ± 0.13 mmol/L. In addition, the LDL-Cholesterol in data set [4] (after 6 months Diazoxide, baseline 3.19 ± 0.32, NS) was 2.97 ± 0.23 mmol/L. In [4] (after 6 months Diazoxide, baseline 5.4 ± 0.1, P<0.02), this molecule showed a HbA1c of 5.9 ± 0.2%. The molecule further returned an Adiponectin in data set [4] (after 6 months Diazoxide, baseline 6.4 ± 0.5, P<0.001) of 12.5 ± 1.2 mg/L. This molecule came in with a BMI in data set [4] (after 6 months Diazoxide, baseline 33.8 ± 0.5, P<0.001) of 31.0 ± 0.7 kg/m^2. Also, the “Diastolic BP” value in data set [4] (after 6 months Diazoxide, baseline 85.8 ± 2.1, P<0.001) is 74.9 ± 2.1 mmHg. The molecule also showed a Waist circumference in data set [4] (after 6 months Diazoxide, P<0.001) of 107.7 ± 2.2 cm. The Waist circumference in data set [4] (after 6 months Diazoxide, P<0.001, listed as DZX) is recorded as 107.7±2.2 cm. Also, the “Systolic BP” value in [4] (after 6 months Diazoxide, baseline 128.8 ± 3.2, NS) is listed as 128.8 ± 3.0 mmHg. In addition, the “Glucosuria in fasting morning urine samples” value in data set [4] (during six months of treatment) is given as “not observed”. The “discontinuation because of side-effects” value in [4] (of eighteen obese men included) was “two men stopped because of side-effects (rash and edema, respectively)”. In data set [4] (subgroup with weight loss between 5 and 10% (4/14 men)), this molecule registered a mean weight loss of 6.7±0.5%. This molecule gave a mean weight loss in data set [4] (subgroup with weight loss less than 5% (5/14 men)) of 3.1±0.8%. Further, the mean weight loss in data set [4] (subgroup with weight loss more than 10% (5/14 men)) is on record as 15.7±0.7%. Besides, the weight loss in [5] is given as 9.8 kg. In the data set with plasma insulin levels (setting [10]), the “effect on fasting or postprandial glucose levels” value is “without affecting fasting or postprandial glucose levels” and the “reduction of plasma insulin levels” value is reported as “about 20%”. Moreover, the “effect on plasma glucose and insulin levels” value in the data set on plasma insulin levels (oral 150 and 225 mg per day divided in three dosages) is recorded as “no significant effect”. For the same molecule, the “effect on weight loss” value in data set [6] was “No effect”. Moreover, the plasma level result in data set [7] (after six months, mean dosage about 585 mg/day) is “about 49 mg/l”. Besides, the body weight result in data set [7] (after six months, mean dosage about 585 mg/day, from about 114 kg) was “about 103 kg”. The “tolerability of higher dosages” value in data set [7] (dose raised monthly from 150 to ultimately 900 mg/day) was “generally not tolerated due to side effects, in particular hyperglycaemia and edema”. Besides, in data set [8], the “effect on blood glucose and insulin levels” value was “effective to normalize blood glucose and insulin levels”.
